Here are results for ten compounds from patent US20250134855A1, “CO[…] AND METHODS OF USING SAME” (LYKOS THERAPEUTICS, INC., priority 2022, published 2025).

Counter-ions that a name gives are not always drawn. Like-named read-outs stand apart in the source and are kept apart here.

Data set [1] can be described thus: Particle size of MDMA measured by laser diffraction. The class given is physicochemical.
For data set [2] the following is noted: cited from earlier work.
The subject of the next data set is CYPs. The data set is described as follows: CYP induction and inhibition of CYPs other than CYP2D6.
A short description of data set [3]: Stress-tests of thermal stability of MDMA·HCl. As to conditions: 70-80° C.
The next data set has as its target CYP2D6 (Homo sapiens, UniProt P10635). The data set is described as follows: CYP2D6 inhibition.
Data set [4] can be described thus: Forced degradation and storage stability of MDMA·HCl API. The class given is physicochemical. An excerpt: The crystalline, anhydrous form (Form 1) of MDMA·HCl is used for clinical development and commercialization purpose.
The long-term chemical stability of MDMA·HCl, Form I appears in FIG. 9 and FIG. 10.

Data set [5] is described as follows: Solubility and permeability of MDMA·HCl.
Data set [6] can be described thus: Study MPKF: plasma pharmacokinetics of MDMA and MDA, single 120 mg MDMA·HCl, fasted/fed. The class given is in vivo, human. As to conditions: for Vd: read-out: volume of distribution. An excerpt:
(§1) The MPKF was a Phase 1, open-label, randomized sequence, multi-dose, 2-period crossover food effect study in 16 healthy individuals. The MPKF study evaluated plasma concentrations of both MDMA and the active metabolite 3,4-methylenedioxyamphetamine (MDA). Summary PK Parameters of the preliminary data was based on interim analysis are presented in Table 12 Table 12 Table 12, and Table 13 Table 13 Table 13 for MDMA and MDA, respectively.
Participants were randomized to receive 1 of 2 conditions before the other: • Fasted Treatment: at least 10 hours of fasting followed by administration of MDMA HCl with 240 mL water. • Fed Treatment: at least 10 hours of fasting followed by a high-fat (approximately 50% of total caloric content of the meal) and high-calorie (approximately 800 to 1000 calories) meal was consumed within 30 minutes prior to IMP administration.
(§2) Participants remained at the clinical research unit (CRU) for each Dosing Session from the time of check-in on the night before dosing until discharge 48 hours after dosing for collection of serial blood samples for PK analysis and safety monitoring. IMP was administered on Day 1 following the treatment sequence to which the participant was randomized. An additional outpatient visit occurred 72 hours after dosing to collect a final PK sample, commensurate with the expected PK profiles of MDMA and MDA. Safety assessments were also performed at this visit.
(§3) The washout period between Dosing Sessions was at least 14 days. If a participant experienced emesis within 4 hours of administration, they were to be withdrawn from the study and replaced with a new participant. An End of Study Visit was performed 2 to 10 days after the completion of the final Dosing Session 72-hour follow-up. An informal interim analysis was planned to be conducted after at least 5 participants completed at least 1 Dosing Session to examine PK variability.
The API was a white crystalline powder of pharmaceutical quality, made according to current Good Manufacturing Practices (cGMP) for human use.
Participants: Sixteen healthy individuals were recruited for the study.
Intervention: The study was conducted as a Phase 1, open-label, randomized sequence, multi-dose, 2-period crossover food effect study. Each participant received multiple doses of MDMA, and plasma concentrations of both MDMA and the active metabolite MDA were measured.
Sample Collection: Blood samples were collected at various time points up to 72 hours after dosing. The samples were analyzed using validated liquid chromatography-tandem mass spectrometry (LC-MS/MS) methods.
Data Analysis: The summary PK parameters were presented in Table 12 for MDMA and Table 13 for MDA. The data were analyzed using descriptive statistics, and the mean and standard deviation were calculated. The results were compared between the two periods and analyzed for food effects. Statistical analyses were performed using appropriate methods, such as analysis of variance (ANOVA) and paired t-tests. A p-value of less than 0.05 was considered statistically significant.

For another data set, the system named is healthy subjects. The data set is described as follows: QTc interval, randomized crossover study. In kind it is in vivo, human. As to the method:
The effect of MDMA·HCl on the QTc interval was evaluated in a randomized, crossover study in N healthy subjects.

In the next data set the test system is healthy individuals. Nature of the data set: Study MPKF: safety and tolerability (AEs, laboratory, vital signs). The class given is in vivo, human.
Text: as §1, §2, §3

For data set [7] the following is noted: paroxetine 20 mg a day for three days; single 100 mg dose of MDMA; cited from earlier work.

Sequence of CYP2D6 (P10635 whole entry): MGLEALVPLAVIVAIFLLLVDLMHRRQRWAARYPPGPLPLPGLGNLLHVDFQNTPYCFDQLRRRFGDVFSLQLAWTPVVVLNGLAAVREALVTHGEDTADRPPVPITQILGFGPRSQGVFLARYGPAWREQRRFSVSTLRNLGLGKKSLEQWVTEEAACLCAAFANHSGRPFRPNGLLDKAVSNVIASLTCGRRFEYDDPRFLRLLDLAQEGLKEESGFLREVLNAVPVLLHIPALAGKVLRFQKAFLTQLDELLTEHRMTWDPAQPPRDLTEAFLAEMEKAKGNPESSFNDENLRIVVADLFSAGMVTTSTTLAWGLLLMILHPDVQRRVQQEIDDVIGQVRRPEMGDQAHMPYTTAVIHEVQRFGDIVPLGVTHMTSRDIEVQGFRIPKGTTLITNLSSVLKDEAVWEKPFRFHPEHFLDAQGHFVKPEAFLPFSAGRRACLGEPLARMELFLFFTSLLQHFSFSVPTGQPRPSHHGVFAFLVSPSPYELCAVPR

Consider `CNC(C)Cc1ccc2c(c1)OCO2.Cl` (stereo not drawn) [CJS194-1], for which, in data set [1], the Dv10 came out at 29.0 μm, the Dv50 came out at 170 μm and the Dv90 was found to be 342 μm.
The matching figures for `CNC(C)Cc1ccc2c(c1)OCO2.Cl` (stereo not drawn) [CJS194-2]: 20.0 μm, 135 μm and 326 μm.
As for `CNC(C)Cc1ccc2c(c1)OCO2.Cl` (stereo not drawn) [CJS194-3], in data set [1], the Dv10 is recorded as 20.9 μm, the Dv50 is reported as 134 μm and the Dv90 is 326 μm.
The corresponding values for `CNC(C)Cc1ccc2c(c1)OCO2.Cl` (stereo not drawn) [CJS194-4] are 23.8 μm, 161 μm and 353 μm.
The corresponding values for `CNC(C)Cc1ccc2c(c1)OCO2.Cl` (stereo not drawn) [CJS194-5] are 23.4 μm, 151 μm and 341 μm.
As for `CNC(C)Cc1ccc2c(c1)OCO2.Cl` (stereo not drawn) [Form III], in data set [2] (storage at ambient conditions), the “time to spontaneous conversion to Form I” value is 2.5 weeks.
Consider `CNC(C)Cc1ccc2c(c1)OCO2.Cl` (stereo not drawn) [Form I], for which, in data set [2] (polymorphic screening), the “relative stability of Forms I-III” value is given as “most stable of Forms I-III”.
As for `CNC(C)Cc1ccc2c(c1)OCO2.Cl` (stereo not drawn) [Input 201101], in data set [1], the Dv10 stood at 376 μm, the Dv50 stood at 512 μm and the Dv90 is recorded as 844 μm.
On to `CNC(C)Cc1ccc2c(c1)OCO2` (stereo not drawn) [MDMA·HCl, MDMA hydrochloride], for which the “induction of CYPs” value in the data set with CYPs is on record as “not an inducer of CYPs”. For the same compound, in the data set with CYPs (human), the “inhibition of CYPs other than CYP2D6” value is recorded as “did not inhibit CYPs other than CYP2D6 in a clinically meaningful manner”. Besides, in data set [3], the “stability in stress-tests, duration” value amounted to 72 h. In addition, at CYP2D6, the CYP2D6 inhibition result was “strong CYP2D6 inhibitor”. The “time over which long term chemical stability remains constant” value in [4] (25 degrees celsius at 60% RH, no change in appearance or increase in degradation products) was “up to 60 months”. In [4] (7 days (FIG. 8)), the forced degradation entry was “minimal degradation”. Moreover, the “time over which chemical stability is not affected” value in data set [4] (higher humidity and temperature, 40 degrees celsius at 75% RH (FIG. 11)) is reported as “up to 12 months”. Further, in [5], the solubility result is recorded as “high”. The permeability result in [5] (not told) is given as “high”. The “effect of food on exposure” value in [6] (high-fat meal vs fasting, single 120 mg MDMA·HCl) is “not affected by food”. The half-life in data set [6] (human, plasma, oral, 120 mg, single 120 mg dose of MDMA·HCl, fasting, read-out: t1/2 (converted)) is 9 h. Besides, in data set [6] (human, plasma, oral, single 100 mg dose of MDMA·HCl), the Vd was 372 L. In addition, the Vd in data set [6] (human, plasma, oral, single 120 mg dose of MDMA·HCl) was found to be 430 L. Besides, the “increase in heart rate” value in the data set with healthy subjects (healthy subjects) is above 10 bpm. Besides, the QTc prolongation result with healthy subjects (therapeutic dose, totality of nonclinical and clinical data) was “lack of clinically relevant QTc prolongation”. In addition, the “participants with nausea and vomiting” value in the data set on healthy individuals (fasted session) amounted to 12.5%. The “SAEs and AESI” value in the data set with healthy individuals (in vivo) is “No SAEs nor AESI were reported”. Besides, in the data set with healthy individuals (single dose of 120 mg MDMA HCl), the overall tolerability entry was “well tolerated”, the “participants reporting TEAEs” value came out at 37.5% and the participants with headache is recorded as 31.3%.
For `Fc1ccc([C@@H]2CCNC[C@H]2COc2ccc3c(c2)OCO3)cc1` [Paroxetine, reference compound], in data set [7], the “increase of AUC0-inf of MDMA” value was 27% and the “increase of Cmax of MDMA” value is 17%.
